# Reference: patent US11306051B2, “Use of vanillin derivatives as a preservative, preservation method, compounds, and composition” (L'OREAL, priority 2009, dated 2022)
# How the values were obtained:
# Type in all cases: cell-based
# [1] = tested on: Aspergillus niger (An) ATCC 6275; test: Challenge Test (artificial contamination) of cosmetic formula, A. niger; conditions: 2% compound in cosmetic formula; inoculation about 10^6 cfu/gram; 7 days contact at 22° C.±2° C. in darkness
# Protocol: The antimicrobial efficacy of a compound of formula (I) was evaluated via the Challenge Test or artificial contamination method. The method of the challenge test consists of an artificial contamination of the sample with collection microbial strains (bacteria, yeasts and moulds) and evaluation of the number of revivable microorganisms seven days after the inoculation. […] [table] The gram-negative bacteria (Escherichia coli and Pseudomonas aeruginosa), gram-positive bacteria (Enterococcus faecalis), yeast (Candida albicans) and mould (Aspergillus niger) are seeded in the subculturing medium, respectively, the day before the inoculation for the bacteria and the yeast, and five days before the inoculation for the mould. for the mould, the spores are collected by washing the agar with 6 to 7 ml of harvesting solution and the suspension is recovered in a sterile tube or flask. After homogenizing the microbial suspension, 0.2 ml of inoculum is introduced into each pill bottle (the suspensions are used pure: between 1×10^8 and 3×10^8 cfu per ml) and the microbial suspension in the 20 g of product (=cosmetic formula) is homogenized thoroughly using a spatula. […] After 7 days of contact time between the microorganisms and the product at 22° C.±2° C. and in darkness, decimal dilutions are performed and the number of revivable microorganisms remaining in the product is counted.
# [2] = tested on: Pseudomonas aeruginosa (Pa) ATCC 19429; test: Challenge Test (artificial contamination) of cosmetic formula, P. aeruginosa; conditions: 2% compound in cosmetic formula; inoculation about 10^6 cfu/gram; 7 days contact at 22° C.±2° C. in darkness; <200 cfu = sensitivity threshold
# Protocol: (§1) The antimicrobial efficacy of a compound of formula (I) was evaluated via the Challenge Test or artificial contamination method. The method of the challenge test consists of an artificial contamination of the sample with collection microbial strains (bacteria, yeasts and moulds) and evaluation of the number of revivable microorganisms seven days after the inoculation. […] [table] […] After 7 days of contact time between the microorganisms and the product at 22° C.±2° C. and in darkness, decimal dilutions are performed and the number of revivable microorganisms remaining in the product is counted.
# [3] = tested on: Candida albicans (Ca) ATCC 10231; test: Challenge Test (artificial contamination) of cosmetic formula, C. albicans; conditions: 2% compound in cosmetic formula; inoculation about 10^6 cfu/gram; 7 days contact at 22° C.±2° C. in darkness; <200 cfu = sensitivity threshold
# Protocol: as §1
# [4] = tested on: Enterococcus faecalis (Ef) ATCC 33186; test: Challenge Test (artificial contamination) of cosmetic formula, E. faecalis; conditions: 2% compound in cosmetic formula; inoculation about 10^6 cfu/gram; 7 days contact at 22° C.±2° C. in darkness; <200 cfu = sensitivity threshold
# Protocol: as §1
# [5] = tested on: Escherichia coli (Ec) ATCC 8739; test: Challenge Test (artificial contamination) of cosmetic formula, E. coli; conditions: 2% compound in cosmetic formula; inoculation about 10^6 cfu/gram; 7 days contact at 22° C.±2° C. in darkness; <200 cfu = sensitivity threshold
# Protocol: as §1
smiles,measurement,setting,value
CCOc1cc(CCC(C)=O)ccc1O [Compound],"No. of cfu/gram of product at T7 days, A. niger",[1],3.4 × 10^5 cfu/gram of product
same,"No. of cfu/gram of product at T7 days, P. aeruginosa",[2],<200 cfu/gram of product
same,"No. of cfu/gram of product at T7 days, C. albicans",[3],<200 cfu/gram of product
same,"No. of cfu/gram of product at T7 days, E. faecalis",[4],<200 cfu/gram of product
same,"No. of cfu/gram of product at T7 days, E. coli",[5],<200 cfu/gram of product
